# Laboratory results taken from patent US10780094B2, “Use of carbonic anhydrase inhibitors for treatment of neurological and psychiatric disorders” (New York University, priority 2016, dated 2020).
# Experiments:
# mitochondrial CA = conditions: reference (16); cited from earlier work
# [1] = references (44, 45); cited from earlier work
# [2] = test system: D3 cerebral microvascular endothelial cells; experiment: TMRM assay of mitochondrial membrane potential (ΔΨ); assay type: cell-based, human; conditions: 40 μM FCCP
# Experimental: (§1) Briefly, cells were plated on 25 mm optical borosilicate poly-L-lysine-coated sterile glass covers (ThermoFisher, Waltham, Mass., US) at a 70% confluence. The day after, cells were washed twice with HBSS and charged with 600 nM TMRM on HBSS. Cells were then incubated for 20 min in the incubator, at 37° C. and washed again with HBSS. After that, the medium was replaced by HBSS containing 150 nM of tetramethylrhodamine methyl ester (TMRM), in order to maintain the equilibrium distribution of the fluorophore. Cells were then mounted on Sykes-Moores chambers (BellCo, Vineland, N.J., US) and treated with the different drugs and/or peptides. An image was taken at minute 0 and at minute 45, after adding the drugs and/or peptides. In this experiment, the peptide was pre-aggregated as above before adding it to the cells.
# SH-SY5Y neuronal cells = experiment: as above; assay type: cell-based, human; conditions: 40 μM FCCP
# Experimental: as §1
# D3 cells [3] = experiment: Mitochondrial and cytoplasmic calcium assay (Rhod-2 AM, Fluo-4 AM); assay type: cell-based, human; conditions: Ionomycin 5 μM at the end of the experiments
# Experimental: (§2) This assay was performed as published in [60]. Briefly, cells were plated on 25 mm optical borosilicate poly-L-lysine-coated sterile glass covers, (ThermoFisher, Waltham, Mass., US) at a 70% confluence. 24 hours later, cells were loaded with 5 μM Rhod-2 AM or 2.5 μM Fluo-4 AM on HBSS for 45 minutes. Then, cells were washed twice with HBSS and incubated for another additional 15 minutes on fresh HBSS, without Rhod-2 AM or Fluo-4 AM. After that, HBSS was replaced again by fresh HBSS, glasses were mounted on microscopy chambers and experiments were conducted, after adding the pre-aggregated peptides and/or the drugs. Cells were mounted on Sykes-Moores chambers (BellCo, Vineland, N.J., US) and imaged every 15 seconds for 45 min, at a 20× magnification, using a Nikon fluorescent microscope (Chiyoda, Tokyo, Japan). Images were processed using NIS-Elements and ImageJ software. Due to the rapidity of this experiment, the peptide was pre-aggregated as described above to obtain oligomers before being added to the cells.
# SH-SY5Y cells [4] = experiment: as above; assay type: cell-based, human; conditions: Ionomycin 5 μM at the end of the experiments
# Experimental: as §2
# D3 cells [5] = experiment: ATP measurement (CellTiter-Glo); assay type: cell-based, human
# Experimental: (§3) Steady state levels of ATP were estimated using the Cell Titter-Glo, according to manufacturer's instructions. Briefly, 5×10^3 cells per well of both D3 and SHSY cells were plated on 96-wells plates. The day after, cells were treated with either 10 μM Q22 or 50 μM Ab42 peptides, respectively. Peptides were added alone or in combination with increasing concentrations of MTZ (100 and 300 μM) or AZT (30 and 300 μM). Controls were treated with either DMSO or 5 μM oligomycin. After 3 hours of treatment, the plates containing the cells were equilibrated to room temperature for 30 minutes prior to addition of the luciferin/luciferase/cell lysis mixture. Absolute luminescence from quadruplicate experiments was recorded using a SpectraMax plate reader (Molecular Devices, Sunnyvalem Calif., US).
# SH-SY5Y cells [6] = experiment: ATP measurement (CellTiter-Glo); assay type: cell-based, human; conditions: oligomycin 5 μM control; p<0.0001
# Experimental: as §3
# [7] = test system: caspase 9 in SH-SY5Y neuronal cells; experiment: Caspase-Glo 9 activity after Aβ challenge; assay type: cell-based, human; conditions: 10 μM Aβ42; 24 hours; no drug
# Experimental: (§4) Caspase 9 and caspase 3/7 activation was measured by luminescent assays (Caspase-Glo 9 and caspase-Glo 3/7, Promega, Madison, Wis.), in cells treated with the Aβ peptides in DMEM without FBS. Briefly, 10,000 cells/well were plated in 96 wells plates and incubated for 24 hours with the freshly solubilized Aβ peptides. Caspase-Glo reagent was added to the cell cultures resulting in cell lysis, followed by caspase cleavage of the substrate and generation of a luminescent signal produced by the luciferase reaction. After 40 minutes incubation, the amount of caspase activity was evaluated in a plate-reading luminometer (Synergy HT Multi-Mode Microplate Reader, Biotek, Winooski, Vt.) as described in (Fossati et al., 2012b). To inhibit non-specific background activity, the proteasome inhibitor MG-132 was added to the Caspase-Glo reagent before the experiment as indicated by the manufacturer. In all cases results are expressed as fold-change compared to untreated control cells.
# Cells were plated at a confluence of 10.000 cells per well in 96-wells microplate luminescence microtiter (ThermoFisher, Waltham, Mass., US). The day after, cells were treated with the peptides and/or drugs for the experimental times. After that, caspase-Glo 9 assay was performed, following the protocol provided from the manufacturer. Luminescence was measured using a FlexStation 3 Multi-Mode Microplate Reader (Molecular devices, Sunnyvalem Calif., US).
# caspase 9 in glial cells = experiment: Caspase-Glo 9 activity after Aβ challenge; assay type: cell-based, human; conditions: 10 μM Aβ42; 24 hours; no drug
# Experimental: as §4
molecule,measurement,setting,value
"CCOc1ccc2nc(S(N)(=O)=O)sc2c1 [ETZ, ethoxzolamide]",activity on mitochondrial CA,mitochondrial CA,high activity
same,ROS formation and cell death induced by high glucose,[1],inhibit ROS formation and cell death
"N#CC(C#N)=NNc1ccc(OC(F)(F)F)cc1 [FCCP, p-trifluoromethoxyphenylhydrazone]",mitochondrial depolarization after treatment with drugs and peptides,[2],further depolarized
same,mitochondrial depolarization after treatment with drugs and peptides,SH-SY5Y neuronal cells,further depolarized
C[C@H](CCC(=O)O)C[C@H](C)C[C@H](C)C(=O)/C=C(\O)[C@H](C)C[C@H](C)C/C=C/[C@@H](C)[C@@H](O)[C@@H](C)[C@@H](O)C[C@@H]1CC[C@@](C)([C@H]2CC[C@@](C)([C@@H](C)O)O2)O1 [Ionomycin],mitochondrial and cytoplasmic calcium levels,D3 cells [3],increase in mitochondrial and cytoplasmic calcium levels
same,mitochondrial and cytoplasmic calcium levels,SH-SY5Y cells [4],increase in mitochondrial and cytoplasmic calcium levels
CC[C@H]1/C=C/C=C/C[C@@H](C)[C@H](O)[C@@](C)(O)C(=O)[C@@H](C)[C@H](O)[C@@H](C)C(=O)[C@@H](C)[C@H](O)[C@@H](C)/C=C/C(=O)O[C@@H]2[C@H](C)[C@H](CC1)O[C@]1(CC[C@H](C)[C@H](C[C@@H](C)O)O1)[C@H]2C [oligomycin],increase in ATP luminescence,"D3 cells [5]; oligomycin 5 μM, p=0.0002",32.4%
same,decrease in ATP levels,SH-SY5Y cells [6],34%
"Aβ40-Q22: Synthetic Aβ40, the Dutch genetic variant, containing the E22Q substitution",increase in steady state ATP levels,"D3 cells [5]; peptide alone, p=0.001",21.6%
"Aβ42: Synthetic homologue of the amyloid subunit Aβ42, used to challenge cells",caspase 9 activation increase compared to control cells,[7],about 1.5 times
same,caspase 9 activation increase compared to control cells,caspase 9 in glial cells,about 1.5 times
